{
  "source": "paper PMC11775380",
  "about": "“Discovery of Novel Nav1.7-Selective Inhibitors with the 1H-Indole-3-Propionamide Scaffold for Effective Pain Relief” (Research, 2025)",
  "key": {"[1]": {"set-up": "method as in PMID 28682065", "conditions": "positive control drug; cited from earlier work"}, "[2]": {"system": "SNI neuropathic pain model in mice", "assay": "Spared nerve injury (SNI) neuropathic pain model", "type": "in vivo, C57 mice", "excerpt": "Peripheral nerve injury models were developed to investigate the mechanisms of neuropathic pain. One such model, the spared nerve injury (SNI) neuropathic pain model in mice, involved ligating and transecting the […] and tibial nerves within the […] nerve, while leaving the sural nerve untouched. […] To evaluate the neuroanalgesic potential of WN2-R in this model, both i.g. and i.m. routes were used to evaluate the neuroanalgesic effect of WN2-R in this model (n = 5). […] In contrast, PF-05089771 reached its peak at 1 h (PWTs = 1.08 g) but then rapidly lost its efficacy, resembling the saline control group after 1 h. Throughout the experiment, the PWTs of the WN2-R group remained consistently higher than that of the PF-05089771 group (Fig. 6F and G). […] Subsequently, the efficacy of both drugs gradually declined, converging with the saline group after 3 h. Throughout the entire dosing period, the PWTs of the WN2-R group were slightly higher than that of the PF-05089771 group (Fig. 6M and N). […] To elucidate the time course of pain hypersensitivity induced by SNI, the behavioral responses (mechanical testing with von Frey fibers) were measured before surgery (baseline value) in C57 mice (5 female). Then, the mice underwent SNI surgery, which involved ligation and axotomy of the common peroneal and tibial nerves, while sparing the sural nerve. Sham-operated mice served as controls, with their nerves remaining intact. To confirm the presence of pain hypersensitivity in the SNI group, behavioral testing was carried out 14 days after SNI in each animal. Post drugs/saline administration, PWTs were measured at 0, 0.5, 1, 1.5, 2, 2.5, and 3 h for the i.g. route, and at 0, 0.5, 1, 2, 3, and 4 h for the i.m. route."}, "[3]": {"system": "formalin-induced acute inflammatory pain model in mice", "assay": "Formalin-induced inflammation pain model", "type": "in vivo, ICR mice", "conditions": "30 min before formalin", "procedure": "The formalin-induced acute inflammatory pain model in mice, achieved through the plantar injection of formalin aqueous solution, is another widely used model for acute inflammatory pain. This model comprises 2 stages: an initial phase ([…]) where pain is triggered by formalin's direct stimulation of nociceptive receptors on sensory neurons, followed by a second phase (15 to 40 min) characterized by persistent inflammatory pain due to tissue damage. Similarly, both i.g. and i.m. methods were used to evaluate the effect of WN2-R in this model (n = 6) (Fig. 6B and I). […] These findings were consistent across repeated experiments.\nTo induce the pain response, 20 μl of formalin (5%, w/v) was injected subcutaneously into the right hind paw of ICR mice (3 male and 3 female). Prior to the formalin injection, mice were preadministered with WN2-R (5 mg/kg i.g., 1 mg/kg i.m.), PF05089771 (5 mg/kg i.g., 1 mg/kg i.m.), or saline 30 min beforehand. The duration of licking/biting the injected paw was recorded every 5 min, commencing immediately after the formalin injection and continuing for 40 min. Phase I and II in this assay corresponded to the nociceptive response observed between 0 and 5 min and between 10 and 40 min, respectively."}, "[4]": {"system": "CFA inflammatory pain model of mice", "assay": "CFA-induced inflammatory (chronic) pain model", "type": "in vivo, ICR mice", "conditions": "for Paw withdrawal threshold (PWT) at 1.5 h: 1.5 h post drug, 24 h after CFA", "procedure": "The chronic pain model of mice was often used to simulate persistent pain in humans. In this model, chronic persistent pain was induced by injecting complete Freund’s adjuvant (CFA) into the right hind foot of mice. […] The chronic analgesic potential of WN2-R was evaluated using both i.g. and i.m. methods (n = 4). When administered by i.g., the PWTs of the WN2-R group and the PF-05089771 group reached their peak at 1.5 and 1 h after administration, respectively, and subsequently declined to the same level as the saline group at 2.5 h (Fig. 6D). […] When administered i.m., both the WN2-R and PF-05089771 groups reached peak PWTs at 1.5 h, and declined to the saline group level at 3 h (Fig. 6K). […] The mechanical allodynia of ICR mice (2 male and 2 female) was assessed prior to model construction using von Frey fibers according to the up–down method. Mice with paw withdraw thresholds (PWTs) remarkably deviating from the mean value were excluded from further experiments. Subsequently, 15 μl of CFA was unilaterally injected into the intraplantar surface of the right hind paw of each mice. After 24 h, the PWTs of the mice were assessed. During the i.g. administration of drugs or saline, PWTs were measured 0, 0.5, 1, 1.5, 2, and 2.5 h post drugs/saline administration. Similarly, during i.m. administration, PWTs were measured at 0, 0.5, 1, 1.5, 2, 2.5, and 3 h post drugs/saline administration."}, "[5]": {"system": "acetic acid writhing pain model in mice", "assay": "Acetic acid-induced writhing test", "type": "in vivo, ICR mice", "conditions": "15 min before acetic acid, writhing counted 30 min", "excerpt": "Acute pain was a common type of pain with considerable value for drug development. Here, 2 acute inflammatory pain models were used to verify the acute analgesic effect of WN2-R. One such model, the acetic acid writhing pain model in mice, is a well-established acute visceral pain model. It simulates clinically relevant intestinal discomfort by stimulating the abdominal mucosa and intestine with acetic acid and has been extensively used to screen analgesic or anti-inflammatory drugs. Based on this model, we evaluated the acute analgesic effect of WN2-R using 2 drug delivery methods, i.g. and […] (n = 6). […] Furthermore, the analgesic effect of WN2-R at the same dose was similar to that of the positive control drug PF-05089771, with no significant difference between these two. […] Three male and 3 female ICR mice were used in the acetic acid-induced writhing test. Mice were preadministered with either WN2-R (5 mg/kg i.g., 1 mg/kg i.m.), PF05089771 (5 mg/kg i.g., 1 mg/kg i.m.), or saline 15 min before i.p. injection of 0.2 ml of acetic acid (0.8%, V/V). Each mouse was then placed in an individual open polyvinyl cage (30 cm × 40 cm × 30 cm). The number of writhing responses, characterized by a wave of abdominal muscle contraction followed by hind limb extension, was recorded for 30 min after acetic acid injection. These responses served as an indication of nociceptive intensity. The percentage of inhibition was calculated using the following equation: Inhibition% = (Writhing Numbervehicle – Writhing Numberdrug)/Writhing Numbervehicle × 100% [15, 47]."}},
  "data": [
    {"smiles": "Nc1[nH]ncc1-c1cc(Cl)ccc1Oc1cc(F)c(S(=O)(=O)Nc2cscn2)cc1Cl", "note": "[PF-05089771, 4-[2-(5-amino-1H-pyrazol-4-yl)-4-chlorophenoxy]-5-chloro-2-fluoro-N-1,3-thiazol-4-ylbenzenesulfonamide, reference compound]", "values": [
      {"measurement": "F (bioavailability)", "setting": "[1]", "result": 27, "unit": "%"},
      {"measurement": "Time of peak efficacy", "setting": "[2]; i.g.", "result": 1, "unit": "h"},
      {"measurement": "Paw withdrawal threshold (PWTs)", "setting": "[2]; i.g., 1 h post drug application, 14 days after SNI", "result": 1.08, "unit": "g"},
      {"measurement": "Time after which efficacy converged with the saline group", "setting": "[2]; i.m.", "result": 3, "unit": "h"},
      {"measurement": "Time of peak efficacy", "setting": "[2]; i.m.", "result": 1, "unit": "h"},
      {"measurement": "Paw withdrawal threshold (PWTs) at peak efficacy", "setting": "[2]; i.m., 1 h post drug application, 14 days after SNI", "result": 1.30, "unit": "g"},
      {"measurement": "Licking time in phase I vs saline", "setting": "[3]; i.g., 5 mg/kg", "result": "significantly reduced licking time"},
      {"measurement": "Licking time in phase II vs saline", "setting": "[3]; i.g., 5 mg/kg", "result": "decreased effectiveness"},
      {"measurement": "Licking time in phase I vs saline", "setting": "[3]; i.m., 1 mg/kg", "result": "significantly reduced licking time"},
      {"measurement": "Licking time in phase II vs saline", "setting": "[3]; i.m., 1 mg/kg", "result": "significantly reduced licking time"},
      {"measurement": "Time at which PWT declined to the saline group level", "setting": "[4]; i.g.", "result": 2.5, "unit": "h"},
      {"measurement": "Time of peak PWT after administration", "setting": "[4]; i.g.", "result": 1, "unit": "h"},
      {"measurement": "Paw withdrawal threshold (PWT) at 1.5 h", "setting": "[4]; i.g.", "result": 1.32, "unit": "g"},
      {"measurement": "Time at which PWT declined to the saline group level", "setting": "[4]; i.m.", "result": 3, "unit": "h"},
      {"measurement": "Time of peak PWT after administration", "setting": "[4]; i.m.", "result": 1.5, "unit": "h"},
      {"measurement": "Paw withdrawal threshold (PWT) at 1.5 h", "setting": "[4]; i.m.", "result": 1.83, "unit": "g"},
      {"measurement": "Analgesic rate (normalized number of writhing)", "setting": "[5]; i.g., 5 mg/kg", "result": 53.5, "unit": "%"},
      {"measurement": "Analgesic rate (normalized number of writhing)", "setting": "[5]; i.p. (method: 1 mg/kg i.m.)", "result": 51.9, "unit": "%"}
    ]}
  ]
}
